{"source": "patent US20130053438A1", "about": "“PHARMACEUTICAL COMPOSITIONS COMPRISING LIGNANS AND THEIR DERIVATIVES FOR THE MEDICAL MANAGEMENT OF ANGIOGENESIS AND HYPOVASCULARITY” (Universitat Innsbruck, priority 2010, published 2013)", "key": {"[1]": {"tested_on": "human microvascular endothelial cells", "experiment": "capillary (endothelial tube) formation on matrigel substrate", "format": "cell-based", "details": "within 6 hrs of incubation, quantified by imaging software", "text": "(§1) In particular 5-methoxy-leoligin has been shown and exemplified in the appended examples as a potent activator of angiogenesis. […] Furthermore, the pro-angiogenic activity of 5-methoxy-leoligin has been tested in vivo in the chorioallantois membrane (CAM) assay of chicken embryos. […] These assays are recognized in the art to represent functional assays for in vitro and in vivo angiogenesis; see Methods in Endothelial cell biology, H G Augustin Ed.; 2004, Springer Lab Manual, ISBN 3-540-21397-X, Springer —Verlag Berlin, Heidelberg, N.Y..\nCells form tube-like structures between each other within 6 hrs of incubation. Those were quantified by an imaging software."}, "HUVECs": {"tested_on": "HUVECs", "experiment": "angiogenic sprouting in a 3-D Collagen matrix (spheroid sprouting assay)", "format": "cell-based", "details": "after 24 h of stimulation", "text": "as §1\nThese sprouts were analyzed after 24 h of stimulation and “cumulative sprout length” (CSL) of each sprout was quantified in μm."}, "[2]": {"tested_on": "chorioallantois membrane (CAM) of chicken embryos", "experiment": "chicken chorioallantoic membrane (CAM) assay", "format": "in vivo", "details": "chicken embryo CAM, each group 5 eggs, p<0.05", "text": "as §1\nEach group consists of 5 eggs."}, "endothelial cells": {"tested_on": "endothelial cells", "experiment": "wound scratch healing assay", "format": "cell-based", "details": "1 and 10 μM, 9 hours", "experimental": "The upper two images show the migration of endothelial cells into scratch area without treatment (left side) an in the presence of Lag2 (right side). The two images at the bottom are the control images of the scratch size at 0 hours."}, "[3]": {"tested_on": "wound closure in pigs (Deutsches Landschwein)", "experiment": "porcine model for time of wound closure, topical administration", "format": "in vivo, pig", "experimental": "FIG. 9. […] N for control and Leoligin treated wounds is 5. […] Data assessment was conducted in a blinded manner.\nFor the large animal model 30-35 kg pigs (Deutsches Landschwein) was used. Animals were supplied by, kept, and experiments were performed at the Central Animal Testing Facility of the University of Innsbruck and the “Besondere Einrichtung für Biomedizinische Forschung” of the Medical University of Vienna. Pigs received a standard growth diet.\nOne hour prior to anaesthesia pigs received an intramuscular injection of 4 mg/kg Azaperon and 0.1 mg/kg Atropin. Full anaesthesia was achieved by intravenously applied 2-3 mg/kg Propofol and 15 mg Piritramid, followed by intubation of animals and ventilation with 30% O2. Muscle relaxation was achieved by an initial does of 8 mg Pancuronium and repetition with 0.2 mg/kg/h Pancuronium. Maintenance of anaesthesia was achieved by continuous infusion with 8-12 mg/kg/h Propofol and 15 mg Piritramid.\nIn the course of an experimental bypass surgery in the pig, after re-implantation of the graft (into the carotis artery) Leoligin (“Leo”) or NaCl control solution was added into the wound topically (the situs was filled with control solution (0.9% NaCl) or a solution containing leoligin at 100 μM. By optical inspection every 24 hours of blinded researchers the time to wound closure/healing was documented. Animals with infected wounds were excluded from the analysis."}, "venous bypass grafts": {"tested_on": "venous bypass grafts", "details": "prior art, Reisinger (2009); cited from earlier work"}, "[4]": {"tested_on": "small muscle cells and endothelial cells", "details": "prior art, Reisinger et al. (2009); cited from earlier work"}}, "note": "Values joined by “and” are separate entries in the source; they are usually repeats but may differ in a detail not shown here. Identical values can stand only once."}
{"smiles": "C/C=C(/C)C(=O)OC[C@H]1[C@@H](Cc2ccc(OC)c(OC)c2)CO[C@@H]1c1cc(OC)c(OC)c(OC)c1", "note": "[5-methoxy-leoligin, [(2S,3R,4R)-4-(3,4-dimethoxybenzyl)-2-(3,4,5-trimethoxyphenyl)tetrahydrofuran-3-yl]methyl-(2Z)-2-methylbut-2-enoat]", "values": [{"measurement": "capillary formation (tube-like structures)", "setting": "[1]", "result": "significant increase in capillary formation"}, {"measurement": "capillary formation (tube-like structures)", "setting": "[1]; listed as LaG2", "result": "dose-depentently supported capillary formation"}, {"measurement": "number and length of angiogenic sprouts (cumulative sprout length)", "setting": "HUVECs", "result": "significantly enhanced both the length and number of angiogenic sprouts"}, {"measurement": "number and length of angiogenic sprouts (cumulative sprout length)", "setting": "HUVECs; listed as LaG2", "result": "significant increase of sprout number and lengths"}, {"measurement": "vascular density / blood vessel formation", "setting": "[2]", "result": "significantly increased the vascular density"}, {"measurement": "vascular density / blood vessel formation", "setting": "[2]; listed as LaG2", "result": "dose-dependently supported embryonic blood vessel formation"}, {"measurement": "migration of endothelial cells into scratch area / wound healing", "setting": "endothelial cells", "result": "promotes the migration of endothelial cells into damaged tissue and stimulates wound healing"}]}
{"smiles": "C/C=C(/C)C(=O)OC[C@H]1[C@@H](Cc2ccc(OC)c(OC)c2)CO[C@@H]1c1ccc(OC)c(OC)c1", "note": "[leoligin, [(2S,3R,4R)-4-(3,4-dimethoxybenzyl)-2-(3,4-dimethoxyphenyl)tetrahydrofuran-3-yl]methyl (2Z)-2-methylbut-2-enoat]", "values": [{"measurement": "wound healing (in words)", "setting": "[3]; leoligin 100 μM topical", "result": "can successfully be used to promote wound healing"}, {"measurement": "time until wound closure after surgery, mean value", "setting": "[3]; leoligin 100 μM topical, N = 5", "result": 19.4, "unit": "days"}, {"measurement": "time until wound closure after surgery, individual wounds", "setting": "[3]; situs filled with solution containing leoligin at 100 μM, topical, inspection every 24 hours, blinded, listed as Leo", "result": "19 days and 20 days and 16 days and 21 days (2×)"}, {"measurement": "effect on intimal hyperplasia of venous bypass grafts", "setting": "venous bypass grafts", "result": "inhibits intimal hyperplasia of venous bypass grafts"}, {"measurement": "induction of cell death", "setting": "[4]", "result": "did not induce cell death"}]}
